Measured values as given in paper PMC3302206 (Biochemistry, 2012).
In brackets after ≈: the same amount, converted by molar mass. Ends that are not written are not given here.

Key:
E. coli K12 = assay type: cell-based, Escherichia coli; conditions: wild type strain; broth microdilution, measured as described (ref 18 protocol)
S. aureus mprF mutant [1] = assay type: cell-based, Staphylococcus aureus; conditions: for MIC, S. aureus mprF mutant, −C: absence of carbonate; for MIC, S. aureus mprF mutant, +C: physiological concentration of carbonate present
wild type S. aureus = assay type: cell-based, Staphylococcus aureus
S. aureus mprF mutant [2] = assay type: cell-based, Staphylococcus aureus; conditions: for MBC, S. aureus mprF mutant, −C: absence of carbonate; for MBC, S. aureus mprF mutant, +C: carbonate present
E. coli DC2 = assay type: cell-based, Escherichia coli; conditions: DC2, 16 h
[3] = test system: wild type S. aureus Rosenbach strain; assay type: cell-based, Staphylococcus aureus; conditions: 16 h
[4] = test system: Staphylococcus aureus UAMS-1; assay type: cell-based; conditions: clinical isolate

| Compound | MIC, E. coli K12 (E. coli K12) [µM] | MIC, S. aureus mprF mutant, −C (S. aureus mprF mutant [1]) [µM] | MIC, S. aureus mprF mutant, +C (S. aureus mprF mutant [1]) [µM] | MBC, WT S. aureus, +C (wild type S. aureus) [µM] | MBC, WT S. aureus, −C (wild type S. aureus) [µM] | MBC, S. aureus mprF mutant, −C (S. aureus mprF mutant [2]) [µM] | MBC, S. aureus mprF mutant, +C (S. aureus mprF mutant [2]) [µM] | MIC, E. coli DC2 (E. coli DC2) [µM] | MIC, WT S. aureus, +C [3] [µM] | MIC, WT S. aureus, −C [3] [µM] | MIC, Staphylococcus aureus UAMS-1 [4] [µM] |
| --- | --- | --- | --- | --- | --- | --- | --- | --- | --- | --- | --- |
| CC[C@H](C)[C@H](NC(=O)[C@H](CCCCN)NC(=O)[C@H](CCC(=O)O)NC(=O)[C@H](CCCCN)NC(=O)[C@H](CO)NC(=O)[C@H](CCCCN)NC(=O)[C@H](CCCNC(=N)N)NC(=O)[C@H](Cc1ccccc1)NC(=O)[C@H](Cc1ccccc1)NC(=O)[C@H](CC(=O)O)NC(=O)CNC(=O)[C@H](CC(C)C)NC(=O)[C@@H](N)CC(C)C)C(=O)NCC(=O)N[C@@H](CCCCN)C(=O)N[C@@H](CCC(=O)O)C(=O)N[C@@H](Cc1ccccc1)C(=O)N[C@@H](CCCCN)C(=O)N[C@@H](CCCNC(=N)N)C(=O)N[C@H](C(=O)N[C@H](C(=O)N[C@@H](CCC(N)=O)C(=O)N[C@@H](CCCNC(=N)N)C(=O)N[C@H](C(=O)N[C@@H](CCCCN)C(=O)N[C@@H](CC(=O)O)C(=O)N[C@@H](Cc1ccccc1)C(=O)N[C@@H](CC(C)C)C(=O)N[C@@H](CCCNC(=N)N)C(=O)N[C@@H](CC(N)=O)C(=O)N[C@@H](CC(C)C)C(=O)N[C@H](C(=O)N1CCC[C@H]1C(=O)N[C@@H](CCCNC(=N)N)C(=O)N[C@H](C(=O)N[C@@H](CCC(=O)O)C(=O)N[C@@H](CO)C(=O)O)[C@@H](C)O)C(C)C)[C@@H](C)CC)C(C)C)[C@@H](C)CC [LL-37] | 5 (≈ 22.5 µg/mL) |  |  |  |  |  |  |  |  |  |  |
| LLGDFFRKAKEKIGKEFKRIVQR [LL-23A9] |  | 6 | 0.35 to 0.7 | >24 | >24 | 6 to 12 | 6 | 9 | >24 | >24 |  |
| CC[C@H](C)[C@H](NC(=O)[C@H](CCCCN)NC(=O)[C@H](CCC(=O)O)NC(=O)[C@H](CCCCN)NC(=O)[C@@H](NC(=O)[C@H](CCCCN)NC(=O)[C@H](CCCNC(=N)N)NC(=O)[C@H](Cc1ccccc1)NC(=O)[C@H](Cc1ccccc1)NC(=O)[C@H](CC(=O)O)NC(=O)CNC(=O)[C@H](CC(C)C)NC(=O)[C@@H](N)CC(C)C)C(C)C)C(=O)NCC(=O)N[C@@H](CCCCN)C(=O)N[C@@H](CCC(=O)O)C(=O)N[C@@H](Cc1ccccc1)C(=O)N[C@@H](CCCCN)C(=O)N[C@@H](CCCNC(=N)N)C(=O)N[C@H](C(=O)N[C@H](C(=O)N[C@@H](CCC(N)=O)C(=O)N[C@@H](CCCNC(=N)N)C(=O)N[C@H](C(=O)N[C@@H](CCCCN)C(=O)N[C@@H](CC(=O)O)C(=O)N[C@@H](Cc1ccccc1)C(=O)N[C@@H](CC(C)C)C(=O)N[C@@H](CCCNC(=N)N)C(=O)N[C@@H](CC(N)=O)C(=O)N[C@@H](CC(C)C)C(=O)N[C@H](C(=O)N1CCC[C@H]1C(=O)N[C@@H](CCCNC(=N)N)C(=O)N[C@H](C(=O)N[C@@H](CCC(=O)O)C(=O)N[C@@H](CO)C(=O)O)[C@@H](C)O)C(C)C)[C@@H](C)CC)C(C)C)[C@@H](C)CC [LL-37V9] |  |  |  |  |  |  |  | 12 (≈ 54.1 µg/mL) |  |  |  |
| LLGDFFRKVKEKIGKEFKRIVQR [LL-23V9] |  | 6 | 0.35 to 0.7 | >24 | >24 | 3 to 6 | 6 to 12 | 2 | 12 | >24 |  |
| CC[C@H](C)[C@H](NC(=O)[C@H](CCCCN)NC(=O)[C@H](CCC(=O)O)NC(=O)[C@H](CCCCN)NC(=O)[C@H](C)NC(=O)[C@H](CCCCN)NC(=O)[C@H](CCCNC(=N)N)NC(=O)[C@H](Cc1ccccc1)NC(=O)[C@H](Cc1ccccc1)NC(=O)[C@H](CC(=O)O)NC(=O)CNC(=O)[C@H](CC(C)C)NC(=O)[C@@H](N)CC(C)C)C(=O)NCC(=O)N[C@@H](CCCCN)C(=O)N[C@@H](CCC(=O)O)C(=O)N[C@@H](Cc1ccccc1)C(=O)N[C@@H](CCCCN)C(=O)N[C@@H](CCCNC(=N)N)C(=O)N[C@H](C(=O)N[C@H](C(=O)N[C@@H](CCC(N)=O)C(=O)N[C@@H](CCCNC(=N)N)C(=O)N[C@H](C(=O)N[C@@H](CCCCN)C(=O)N[C@@H](CC(=O)O)C(=O)N[C@@H](Cc1ccccc1)C(=O)N[C@@H](CC(C)C)C(=O)N[C@@H](CCCNC(=N)N)C(=O)N[C@@H](CC(N)=O)C(=O)N[C@@H](CC(C)C)C(=O)N[C@H](C(=O)N1CCC[C@H]1C(=O)N[C@@H](CCCNC(=N)N)C(=O)N[C@H](C(=O)N[C@@H](CCC(=O)O)C(=O)N[C@@H](CO)C(=O)O)[C@@H](C)O)C(C)C)[C@@H](C)CC)C(C)C)[C@@H](C)CC [LL-37A9] |  |  |  |  |  |  |  | 6 (≈ 26.9 µg/mL) |  |  |  |
| LLGDFFRKSKEKIGKEFKRIVQR [LL-23] |  | 24 | 3 | >24 | >24 | >24 | 12 | 9 | >24 | >24 | > 160 |
